Legend:
Assay type in all cases: in vivo
[1] = tested on: Myzus persicae (Green Peach Aphid); test: Example B5: Myzus persicae feeding/contact activity, sunflower leaf discs; conditions: foliar, 144 h, application rate of 200 ppm, 6 days after infestation
Procedure: Example B5: Myzus persicae (Green Peach Aphid): Feeding/Contact Activity
Sunflower leaf discs were placed onto agar in a 24-well microtiter plate and sprayed with aqueous test solutions prepared from 10,000 ppm DMSO stock solutions. After drying, the leaf discs were infested with an aphid population of mixed ages. The samples were assessed for mortality 6 days after infestation.

[2] = tested on: Plutella xylostella (Diamond Back Moth); test: Example B8: Plutella xylostella, artificial diet, L2 larvae; conditions: for percent effect (mortality or growth inhibition) at 200 ppm: Plutella xylostella, 120 h, application rate of 200 ppm, 5 days after infestation, L2 larvae, read-out: effect in at least one of the two categories (mortality or growth inhibition)
Procedure: Example B8: Plutella xylostella (Diamond Back Moth)
(§1) 24-well microtiter plates with artificial diet were treated with aqueous test solutions prepared from 10,000 ppm DMSO stock solutions by pipetting. After drying, the plates were infested with L2 larvae (10 to 15 per well). The samples were assessed for mortality and growth inhibition in comparison to untreated samples 5 days after infestation. The following compounds gave an effect of at least 80% in at least one of the two categories (mortality or growth inhibition) at an application rate of 200 ppm:
(§2) Insecticidal action against Diabrotica balteata (Corn root worm), Plutella xylostella (Diamond black moth), and Spodoptera littoralis (Egyptian cotton leaf worm). The tests were carried out as described in biological examples B2, B8 and B9, respectively, with the larval feeding/contact activity (mortality only) being reported as Breakpoint (BP80) values in parts per million (i.e. the lowest concentration which gives 80% larval mortality).

[3] = tested on: Euschistus heros (Neotropical Brown Stink Bug); test: Example B3: Euschistus heros, sprayed soybean leaves, N2 nymphs; conditions: 120 h, application rate of 200 ppm, 5 days after infestation, read-out: effect in at least one of the two categories (mortality or growth inhibition)
Procedure: Example B3: Euschistus heros (Neotropical Brown Stink Bug)
Soybean leaves on agar in 24-well microtiter plates were sprayed with aqueous test solutions prepared from 10,000 ppm DMSO stock solutions. After drying the leaves were infested with N2 nymphs. The samples were assessed for mortality and growth inhibition in comparison to untreated samples 5 days after infestation. The following compounds gave an effect of at least 80% in at least one of the two categories (mortality or growth inhibition) at an application rate of 200 ppm: […]

[4] = tested on: Diabrotica balteata (Corn Root Worm); test: Example B2: Diabrotica balteata, sprayed maize sprouts, L2 larvae; conditions: for percent effect (mortality or growth inhibition) at 200 ppm: Diabrotica balteata, 96 h, application rate of 200 ppm, 4 days after infestation, L2 larvae, read-out: effect in at least one of the two categories (mortality or growth inhibition)
Procedure: Example B2: Diabrotica balteata (Corn Root Worm)
as §1, with “Maize sprouts placed onto an agar layer in 24-well” for “24-well”, “plates” for “plates with artificial diet”, “spraying.” for “pipetting.”, “(6” for “(10”, “10” for “15”, “4” for “5”
as §2

[5] = tested on: Spodoptera littoralis (Egyptian Cotton Leaf Worm); test: Example B9: Spodoptera littoralis, cotton leaf discs, L1 larvae; conditions: for percent control (mortality, anti-feedant effect or growth inhibition) at 200 ppm: Spodoptera littoralis, foliar, 72 h, application rate of 200 ppm, 3 days after infestation, L1 larvae
Procedure: Example B9: Spodoptera littoralis (Egyptian Cotton Leaf Worm)
Cotton leaf discs were placed onto agar in 24-well microtiter plates and sprayed with aqueous test solutions prepared from 10,000 ppm DMSO stock solutions. After drying the leaf discs were infested with five L1 larvae. The samples were assessed for mortality, anti-feeding effect, and growth inhibition in comparison to untreated samples 3 days after infestation. Control of Spodoptera littoralis by a test sample is given when at least one of the categories mortality, anti-feedant effect, and growth inhibition is higher than the untreated sample.
as §2

CCSc1nc(Br)sc1-c1nc2cc(C(F)(F)F)ncc2n1C [Example I-5, 2-bromo-4-ethylsulfanyl-5-[3-methyl-6-(trifluoromethyl)imidazo[4,5-c]pyridin-2-yl]thiazole]
mortality at 200 ppm [1]: ≥ 80%

CCS(=O)(=O)c1cc(I)sc1-c1nc2cc(SC(F)(F)F)ncc2n1C [Example I-8, 2-(3-ethylsulfonyl-5-iodo-2-thienyl)-3-methyl-6-(trifluoromethylsulfanyl)imidazo[4,5-c]pyridine]
percent effect (mortality or growth inhibition) at 200 ppm [2]: ≥ 80%
percent effect (mortality or growth inhibition) at 200 ppm [3]: ≥ 80%
mortality at 200 ppm [1]: ≥ 80%
percent effect (mortality or growth inhibition) at 200 ppm [4]: ≥ 80%
percent control (mortality, anti-feedant effect or growth inhibition) at 200 ppm [5]: ≥ 80%

CCS(=O)(=O)c1sc(Br)nc1-c1nc2cc(C(F)(F)F)ncc2n1C [Example I-9, 2-bromo-5-ethylsulfonyl-4-[3-methyl-6-(trifluoromethyl)imidazo[4,5-c]pyridin-2-yl]thiazole]
percent effect (mortality or growth inhibition) at 200 ppm [4]: ≥ 80%

CCSc1sc(Br)nc1-c1nc2cc(SC(F)(F)F)ncc2n1C [Example I-10]
percent effect (mortality or growth inhibition) at 200 ppm [2]: ≥ 80%

CCS(=O)(=O)c1nc(Br)sc1-c1nc2cc(SC(F)(F)F)ncc2n1C [Example I-11]
percent effect (mortality or growth inhibition) at 200 ppm [4]: ≥ 80%

CCS(=O)(=O)c1cc(-n2ccc(C(F)(F)F)n2)sc1-c1nc2cc(C(F)(F)F)ncc2n1C [Example P-2, 2-[3-ethylsulfonyl-5-[3-(trifluoromethyl)pyrazol-1-yl]-2-thienyl]-3-methyl-6-(trifluoromethyl)imidazo[4,5-c]pyridine]
percent effect (mortality or growth inhibition) at 200 ppm [2]: ≥ 80%
percent effect (mortality or growth inhibition) at 200 ppm [3]: ≥ 80%
mortality at 200 ppm [1]: ≥ 80%
percent effect (mortality or growth inhibition) at 200 ppm [4]: ≥ 80%
percent control (mortality, anti-feedant effect or growth inhibition) at 200 ppm [5]: ≥ 80%

CCSc1cc(-n2ccc(C(F)(F)F)n2)sc1-c1nc2cc(C(F)(F)F)ncc2n1C [Example P-3, 2-[3-ethylsulfanyl-5-[3-(trifluoromethyl)pyrazol-1-yl]-2-thienyl]-3-methyl-6-(trifluoromethyl)imidazo[4,5-c]pyridine]
percent effect (mortality or growth inhibition) at 200 ppm [2]: ≥ 80%
percent effect (mortality or growth inhibition) at 200 ppm [4]: ≥ 80%

CCSc1c(-c2nc3cc(C(F)(F)F)ncc3n2C)sc(-c2ccc(Cl)cc2)c1Cl [Example P-7, 2-[4-chloro-5-(4-chlorophenyl)-3-ethylsulfanyl-2-thienyl]-3-methyl-6-(trifluoromethyl)imidazo[4,5-c]pyridine]
percent effect (mortality or growth inhibition) at 200 ppm [2]: ≥ 80%
percent effect (mortality or growth inhibition) at 200 ppm [3]: ≥ 80%
percent effect (mortality or growth inhibition) at 200 ppm [4]: ≥ 80%
percent control (mortality, anti-feedant effect or growth inhibition) at 200 ppm [5]: ≥ 80%

CCS(=O)(=O)c1c(-c2nc3cc(C(F)(F)F)ncc3n2C)sc(-c2ccc(Cl)cc2)c1Cl [Example P-8, 2-[4-chloro-5-(4-chlorophenyl)-3-ethylsulfonyl-2-thienyl]-3-methyl-6-(trifluoromethyl)imidazo[4,5-c]pyridine]
percent effect (mortality or growth inhibition) at 200 ppm [2]: ≥ 80%
percent effect (mortality or growth inhibition) at 200 ppm [4]: ≥ 80%
percent control (mortality, anti-feedant effect or growth inhibition) at 200 ppm [5]: ≥ 80%

CCS(=O)(=O)c1cc(-n2ccc(C(F)(F)F)n2)sc1-c1nc2cc(C(F)(F)F)nnc2n1C [Example P-12, 6-[3-ethylsulfonyl-5-[3-(trifluoromethyl)pyrazol-1-yl]-2-thienyl]-7-methyl-3-(trifluoromethyl)imidazo[4,5-c]pyridazine]
percent effect (mortality or growth inhibition) at 200 ppm [2]: ≥ 80%
percent effect (mortality or growth inhibition) at 200 ppm [3]: ≥ 80%
mortality at 200 ppm [1]: ≥ 80%
percent effect (mortality or growth inhibition) at 200 ppm [4]: ≥ 80%
percent control (mortality, anti-feedant effect or growth inhibition) at 200 ppm [5]: ≥ 80%

CCS(=O)(=O)c1cc(-c2ncccn2)sc1-c1nc2cc(SC(F)(F)F)ncc2n1C [Example P-16, 2-(3-ethylsulfonyl-5-pyrimidin-2-yl-2-thienyl)-3-methyl-6-(trifluoromethylsulfanyl)imidazo[4,5-c]pyridine]
percent effect (mortality or growth inhibition) at 200 ppm [2]: ≥ 80%
percent effect (mortality or growth inhibition) at 200 ppm [3]: ≥ 80%
percent effect (mortality or growth inhibition) at 200 ppm [4]: ≥ 80%
percent control (mortality, anti-feedant effect or growth inhibition) at 200 ppm [5]: ≥ 80%

CCS(=O)(=O)c1sc(-c2ccc(Cl)cc2)nc1-c1nc2cc(C(F)(F)F)ncc2n1C [Example P-19, 2-(4-chlorophenyl)-5-ethylsulfonyl-4-[3-methyl-6-(trifluoromethyl)imidazo[4,5-c]pyridin-2-yl]thiazole]
percent effect (mortality or growth inhibition) at 200 ppm [4]: ≥ 80%
percent control (mortality, anti-feedant effect or growth inhibition) at 200 ppm [5]: ≥ 80%

CCS(=O)(=O)c1sc(-n2ccc(C(F)(F)F)n2)nc1-c1nc2cc(C(F)(F)F)ncc2n1C [Example P-20, 5-ethylsulfonyl-4-[3-methyl-6-(trifluoromethyl)imidazo[4,5-c]pyridin-2-yl]-2-[3-(trifluoromethyl)pyrazol-1-yl]thiazole]
percent effect (mortality or growth inhibition) at 200 ppm [2]: ≥ 80%
percent effect (mortality or growth inhibition) at 200 ppm [3]: ≥ 80%
percent effect (mortality or growth inhibition) at 200 ppm [4]: ≥ 80%
percent control (mortality, anti-feedant effect or growth inhibition) at 200 ppm [5]: ≥ 80%

CCSc1sc(-n2ccc(C(F)(F)F)n2)nc1-c1nc2cc(C(F)(F)F)ncc2n1C [Example P-21, 5-ethylsulfanyl-4-[3-methyl-6-(trifluoromethyl)imidazo[4,5-c]pyridin-2-yl]-2-[3-(trifluoromethyl)pyrazol-1-yl]thiazole]
percent effect (mortality or growth inhibition) at 200 ppm [4]: ≥ 80%

CCS(=O)(=O)c1sc(C2CC2)nc1-c1nc2cc(C(F)(F)F)ncc2n1C [Example P-22, 2-cyclopropyl-5-ethylsulfonyl-4-[3-methyl-6-(trifluoromethyl)imidazo[4,5-c]pyridin-2-yl]thiazole]
percent effect (mortality or growth inhibition) at 200 ppm [2]: ≥ 80%
percent effect (mortality or growth inhibition) at 200 ppm [3]: ≥ 80%
mortality at 200 ppm [1]: ≥ 80%
percent effect (mortality or growth inhibition) at 200 ppm [4]: ≥ 80%
percent control (mortality, anti-feedant effect or growth inhibition) at 200 ppm [5]: ≥ 80%

CCS(=O)(=O)c1sc(-c2ncccn2)nc1-c1nc2cc(C(F)(F)F)ncc2n1C [Example P-23, 5-ethylsulfonyl-4-[3-methyl-6-(trifluoromethyl)imidazo[4,5-c]pyridin-2-yl]-2-pyrimidin-2-yl-thiazole]
percent effect (mortality or growth inhibition) at 200 ppm [2]: ≥ 80%
percent effect (mortality or growth inhibition) at 200 ppm [4]: ≥ 80%
percent control (mortality, anti-feedant effect or growth inhibition) at 200 ppm [5]: ≥ 80%

CCS(=O)(=O)c1sc(-c2ccc(Cl)cc2)nc1-c1nc2cc(SC(F)(F)F)ncc2n1C [Example P-24]
percent effect (mortality or growth inhibition) at 200 ppm [2]: ≥ 80%
percent control (mortality, anti-feedant effect or growth inhibition) at 200 ppm [5]: ≥ 80%

CCS(=O)(=O)c1sc(-c2cc(F)cc(F)c2)nc1-c1nc2cc(SC(F)(F)F)ncc2n1C [Example P-26]
percent effect (mortality or growth inhibition) at 200 ppm [2]: ≥ 80%
percent effect (mortality or growth inhibition) at 200 ppm [4]: ≥ 80%
percent control (mortality, anti-feedant effect or growth inhibition) at 200 ppm [5]: ≥ 80%

CCS(=O)(=O)c1cc(C(F)(F)F)sc1-c1nc2cc(C(F)(F)F)ncc2n1C [Example V14.01, reference compound]
BP80 (Breakpoint, lowest concentration which gives 80% larval mortality) Plutella xylostella ([2]; larval feeding/contact activity, mortality only, test as in B8): 50 ppm
BP80 (Breakpoint, lowest concentration which gives 80% larval mortality) Diabrotica balteata ([4]; larval feeding/contact activity, mortality only, test as in B2): 50 ppm
BP80 (Breakpoint, lowest concentration which gives 80% larval mortality) Spodoptera littoralis ([5]; larval feeding/contact activity, mortality only, test as in B9): 50 ppm

Reference: patent US10125139B2, “Pesticidally active polycyclic derivatives with sulfur substituted five-membered ring heterocycles” (Syngenta Participations AG, priority 2015, dated 2018)
